Laboratory results published in US11672842B2, “Gonadotropin-releasing hormones for use as adjuvant immunotherapeutics” (ISR IMMUNE SYSTEM REGULATION HOLDING AB (PUBL), priority 2017, dated 2023).
[ ]: non-standard residue; d: D form. pGlu = O=C1CC[C@@H](C(=O)O)N1

Experiments:
[1] = Open-label phase IIa clinical study: safety and tolerability; assay type: in vivo, human
From the text: The study outline is depicted in FIG. 3.

[2] = tested on: CD4+ and CD8+ T cells (PBMCs from a healthy donor); test: MHC class I expression after stimulation of T cells with GnRH II (FIG. 1); assay type: cell-based, human; details: GnRH II and IL-2 for 72 hours, flow cytometry
Method: FIG. 1: Expression of MHC class I after stimulation of T cells with increasing concentrations of GnRH II. PBMCs from a healthy donor was stimulated with GnRH II and IL-2 for 72 hours. Data points represent mean fluorescent intensity of MCH class I expression on CD4^+ T cells (blue triangles) or CD8^+ T cells (black squares) measured with flow cytometry.

[3] = tested on: CD4+ T-lymphocytes; details: BB rats exhibiting an AIDS-like lymphocyte profile; cited from earlier work

CCNC(=O)[C@@H]1CCCN1C(=O)[C@H](CCCNC(=N)N)NC(=O)[C@H](CC(C)C)NC(=O)[C@@H](COC(C)(C)C)NC(=O)[C@H](Cc1ccc(O)cc1)NC(=O)[C@H](CO)NC(=O)[C@H](Cc1c[nH]c2ccccc12)NC(=O)[C@H](Cc1cnc[nH]1)NC(=O)[C@@H]1CCC(=O)N1 [buserelin acetate]
Any AE affecting impotence, % of patients ([1]; Safety (n = 26)): (23.1%) | Any AE affecting libido, % of patients ([1]; Safety (n = 26)): (30.8%) | Any AE leading to discontinuation, % of patients ([1]; Safety (n = 26)): (3.8%) | Any AE, % of patients ([1]; Safety (n = 26)): (100.0%) | Any SAE, % of patients ([1]; Safety (n = 26)): (0.0%) | Any treatment-related AE, % of patients ([1]; Safety (n = 26)): (65.4%) | Any treatment-related SAE, % of patients ([1]; Safety (n = 26)): (0.0%) | Death, % of patients ([1]; Safety (n = 26)): 0.0% | grading of adverse events ([1]; in words): All adverse events except one was graded as mild | overall safety and tolerability of the treatment ([1]; in words): safe and well-tolerated | serious adverse events (SAEs) during the study ([1]; in words): no serious adverse events

pyroGlu-His-Trp-Ser-His-Gly-Trp-Tyr-Pro-Gly-NH2 ([pGlu]HWSHGWYPG-NH2; SMILES NC(=O)CNC(=O)[C@@H]1CCCN1C(=O)[C@H](Cc1ccc(O)cc1)NC(=O)[C@H](Cc1c[nH]c2ccccc12)NC(=O)CNC(=O)[C@H](Cc1c[nH]cn1)NC(=O)[C@H](CO)NC(=O)[C@H](Cc1c[nH]c2ccccc12)NC(=O)[C@H](Cc1c[nH]cn1)NC(=O)[C@@H]1CCC(=O)N1) [GnRH II, second, non-hypothalamic form of GnRH]
MHC class I expression on T cells [2]: stimulates MHC class I expression

pyroGlu-His-Trp-Ser-Tyr-Gly-Leu-Arg-Pro-Gly-NH2 (EHWSYGLRPG; N-terminal pyroglutamate, C-terminal amide; printed: Glu-His-Trp-Ser-Tyr-Gly-Leu-Arg-Pro-Gly-) [GnRH I, decapeptide hormone]
CD4+ T-lymphocyte numbers [3]: increased
